In US11000033B2, “Ketone or oxime compound, and herbicide” (NISSAN CHEMICAL CORPORATION, priority 2014, dated 2021):

Legend:
Assay type in all cases: in vivo
Scirpus juncoides = assay: Test Example 2: herbicidal activity, application during weed generation in submerged conditions (symbol B); conditions: Table 23; application herbicide amount 320 g/ha; grade 0-5 by criteria of Test Example 1
Method in brief: (§1)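 Read-out: herbicidal effect on each species rated on a visual scale 3 weeks after treatment. Plants were raised together from seed in flooded alluvial soil (4 cm water) at 25° C. to 30° C. and treated at one to two leaves by water-surface application of diluted emulsion.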

Cyperus difformis = assay: Test Example 3: herbicidal effect by foliage application, Wagner pot (symbol E); conditions: application herbicide amount 320 g/ha
Method in brief: (§2)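 Scoring took place 3 weeks after application, using fixed criteria. Plants had been raised from seed for 14 days at 25 to 30 °C in submerged alluvial soil before a diluted emulsion of the test compound was sprayed uniformly on the leaves.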

transplanted rice plant = assay: Test Example 1: effect on crop, application before weed generation in submerged conditions (symbol a); conditions: application herbicide amount 320 g/ha
Method in brief: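 Alluvial soil pots flooded to 4 cm water, sown with Echinochloa oryzacola, Scirpus juncoides and Monochoria vaginalis, then transplanted with 2.5 leaf stage rice seedlings; pre-emergence application. Greenhouse 25° C. to 30° C.; scored 0–5 by herbicidal ratio 3 weeks after application.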

Stellaria media = assay: Test Example 4: herbicidal effect by soil treatment (symbol P); conditions: application herbicide amount 320 g/ha
Method in brief: (§3)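 Seeds were sown in sterilized diluvial soil, covered with about 1.5 cm of soil, and the soil surface was sprayed with a water-diluted emulsion of the compound at a predetermined rate. Plants grew in a greenhouse at 25° C. to 30° C.; effects were scored visually 3 weeks after application.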

Monochoria vaginalis = assay: Test Example 1: herbicidal activity, application before weed generation in submerged conditions (symbol C); conditions: application herbicide amount 320 g/ha
Method in brief: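 Scores run 0 to 5 by herbicidal ratio, with 5 meaning 90% or more and 0 meaning 5% or lower, read 3 weeks after treatment. Compound was applied as a diluted emulsion to the water surface of submerged alluvial-soil pots on the day weed seeds were sown.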

rice plant = assay: Test Example 5: effect on crop by foliage application, plastic box (symbol b); conditions: 320 g/ha, 3 weeks after application
Method in brief: (§4)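 Greenhouse culture at 25° C. to 30° C. followed spot-like sowing into sterilized diluvial soil, with seed covered by roughly 1.5 cm of soil.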

wheat = assay: Test Example 4: effect on crop by soil treatment (symbol e); conditions: application herbicide amount 320 g/ha
Method in brief: (§5)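 Greenhouse culture at 25° C. to 30° C. followed sowing of seed in spots on sterilized diluvial soil with a soil cover close to 1.5 cm thick.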

soybean [1] = assay: Test Example 5: effect on crop by foliage application, plastic box (symbol d); conditions: 320 g/ha, 3 weeks after application
Method in brief: as §4

beet = assay: Test Example 5: effect on crop by foliage application, plastic box (symbol f); conditions: 320 g/ha, 3 weeks after application
Method in brief: as §4

Leptochloa chinensis = assay: Test Example 3: herbicidal effect by foliage application, Wagner pot (symbol D); conditions: application herbicide amount 320 g/ha
Method in brief: as §2

[2] = test system: Echinochloa oryzacola Vasing.; assay: Test Example 2: herbicidal activity, application during weed generation in submerged conditions (symbol A); conditions: Table 23; application herbicide amount 320 g/ha; grade 0-5 by criteria of Test Example 1
Method in brief: as §1

soybean [3] = assay: Test Example 4: effect on crop by soil treatment (symbol d); conditions: application herbicide amount 320 g/ha
Method in brief: as §5

corn [4] = assay: Test Example 4: effect on crop by soil treatment (symbol c); conditions: application herbicide amount 320 g/ha
Method in brief: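 Seeds were sown in spots on sterilized diluvial soil in a plastic box and covered with about 1.5 cm of soil. Plants were then grown in a greenhouse at 25° C. to 30° C.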

Abutilon theophrasti = assay: Test Example 4: herbicidal effect by soil treatment (symbol M); conditions: application herbicide amount 320 g/ha
Method in brief: as §3

[5] = test system: Echinochloa crus-galli var. crus-galli; assay: Test Example 3: herbicidal effect by foliage application, Wagner pot (symbol H); conditions: application herbicide amount 320 g/ha
Method in brief: as §2

corn [6] = assay: Test Example 5: effect on crop by foliage application, plastic box (symbol c); conditions: 320 g/ha, 3 weeks after application
Method in brief: as §4

Row | Structure (SMILES) | Herbicidal effect grade, B: Scirpus juncoides (Scirpus juncoides) | herbicidal effect on E, grade 0-5 (Cyperus difformis) | Effect grade on crop, a: transplanted rice plant (transplanted rice plant) | Herbicidal effect grade, P: Stellaria media (Stellaria media) | Herbicidal effect grade, C: Monochoria vaginalis (Monochoria vaginalis) | b: directly sowed rice plant, effect on crop (criteria of Test Example 1) (rice plant) | Effect on crop grade, e: wheat (wheat) | d: soybean, effect on crop (criteria of Test Example 1) (soybean [1]) | f: beet, effect on crop (criteria of Test Example 1) (beet) | herbicidal effect on D (Leptochloa chinensis), grade 0-5 (Leptochloa chinensis) | Herbicidal effect grade, A: Echinochloa oryzacola Vasing. [2] | Effect on crop grade, d: soybean (soybean [3]) | Effect on crop grade, c: corn (corn [4]) | Herbicidal effect grade, M: Abutilon theophrasti (Abutilon theophrasti) | herbicidal effect on H (Echinochloa crus-galli var. crus-galli), grade 0-5 [5] | c: corn, effect on crop (criteria of Test Example 1) (corn [6]) | other results
1 | CON=C(C)CC1CC(O)=C(c2c(OC)cc(C)cc2OC)C1=O (centres unmarked) [6-103] | 0 (Herbicidal ratio of 5% or lower (almost no effect)) | 5 (Herbicidal ratio of 90% or more (almost completely withered)) | 5 (Herbicidal ratio of 90% or more (almost completely withered)) | 0 (Herbicidal ratio of 5% or lower (almost no effect)) | 0 (Herbicidal ratio of 5% or lower (almost no effect)) | 5 (Herbicidal ratio of 90% or more (almost completely withered)) | 5 (Herbicidal ratio of 90% or more (almost completely withered)) | 0 (Herbicidal ratio of 5% or lower (almost no effect)) | 0 (Herbicidal ratio of 5% or lower (almost no effect)) | 5 (Herbicidal ratio of 90% or more (almost completely withered)) | 5 (Herbicidal ratio of 90% or more (almost completely withered)) | 0 (Herbicidal ratio of 5% or lower (almost no effect)) | 5 (Herbicidal ratio of 90% or more (almost completely withered)) | 0 (Herbicidal ratio of 5% or lower (almost no effect)) | 5 (Herbicidal ratio of 90% or more (almost completely withered)) | 5 (Herbicidal ratio of 90% or more (almost completely withered)) | 
2 | CC(=O)CC1CC(O)=C(c2c(C)cc(C)cc2Br)C1=O (centres unmarked) [7-011] | 2 (Herbicidal ratio of 20% or higher and lower than 40%) | 5 (Herbicidal ratio of 90% or more (almost completely withered)) | 1 (Herbicidal ratio of 5% or higher and lower than 20%) | 0 (Herbicidal ratio of 5% or lower (almost no effect)) | 0 (Herbicidal ratio of 5% or lower (almost no effect)) | 5 (Herbicidal ratio of 90% or more (almost completely withered)) | 0 (Herbicidal ratio of 5% or lower (almost no effect)) | 0 (Herbicidal ratio of 5% or lower (almost no effect)) | 0 (Herbicidal ratio of 5% or lower (almost no effect)) | 4 (Herbicidal ratio of 70% or higher and lower than 90%) | 3 (Herbicidal ratio of 40% or higher and lower than 70%) | 0 (Herbicidal ratio of 5% or lower (almost no effect)) | 3 (Herbicidal ratio of 40% or higher and lower than 70%) | 0 (Herbicidal ratio of 5% or lower (almost no effect)) | 5 (Herbicidal ratio of 90% or more (almost completely withered)) | 2 (Herbicidal ratio of 20% or higher and lower than 40%) | 
3 | CON=C(C)CC1CC(OC(=O)N2CCOCC2)=C(c2c(C)cc(-c3ccc(Cl)cc3)cc2C)C1=O (mixture of isomers) [6-062] | 3 (Herbicidal ratio of 40% or higher and lower than 70%) | 5 (Herbicidal ratio of 90% or more (almost completely withered)) | 5 (Herbicidal ratio of 90% or more (almost completely withered)) |  | 4 (Herbicidal ratio of 70% or higher and lower than 90%) | 5 (Herbicidal ratio of 90% or more (almost completely withered)) |  | 0 (Herbicidal ratio of 5% or lower (almost no effect)) | 0 (Herbicidal ratio of 5% or lower (almost no effect)) | 5 (Herbicidal ratio of 90% or more (almost completely withered)) | 5 (Herbicidal ratio of 90% or more (almost completely withered)) |  |  |  | 5 (Herbicidal ratio of 90% or more (almost completely withered)) | 5 (Herbicidal ratio of 90% or more (almost completely withered)) | P: Stellaria media, herbicidal effect grade (Stellaria media): 3 (Herbicidal ratio of 40% or higher and lower than 70%); e: wheat, effect on crop grade (wheat): 0 (Herbicidal ratio of 5% or lower (almost no effect)); d: soybean, effect on crop grade (soybean [3]): 0 (Herbicidal ratio of 5% or lower (almost no effect)); c: corn, effect on crop grade (corn [4]): 0 (Herbicidal ratio of 5% or lower (almost no effect)); M: Abutilon theophrasti, herbicidal effect grade (Abutilon theophrasti): 0 (Herbicidal ratio of 5% or lower (almost no effect))
4 | CON=C(C)CC1CC(O)=C(c2c(C)cccc2C)C1=O (centres unmarked) [6-112] | 0 (Herbicidal ratio of 5% or lower (almost no effect)) | 4 (Herbicidal ratio of 70% or higher and lower than 90%) | 4 (Herbicidal ratio of 70% or higher and lower than 90%) | 0 (Herbicidal ratio of 5% or lower (almost no effect)) | 0 (Herbicidal ratio of 5% or lower (almost no effect)) | 5 (Herbicidal ratio of 90% or more (almost completely withered)) | 3 (Herbicidal ratio of 40% or higher and lower than 70%) | 3 (Herbicidal ratio of 40% or higher and lower than 70%) | 0 (Herbicidal ratio of 5% or lower (almost no effect)) | 5 (Herbicidal ratio of 90% or more (almost completely withered)) | 3 (Herbicidal ratio of 40% or higher and lower than 70%) | 0 (Herbicidal ratio of 5% or lower (almost no effect)) | 1 (Herbicidal ratio of 5% or higher and lower than 20%) | 1 (Herbicidal ratio of 5% or higher and lower than 20%) | 5 (Herbicidal ratio of 90% or more (almost completely withered)) | 5 (Herbicidal ratio of 90% or more (almost completely withered)) | 
5 | CCc1cc(Br)cc(C)c1C1=C(O)CC(CC(C)=O)C1=O (centres unmarked) [7-003] | 0 (Herbicidal ratio of 5% or lower (almost no effect)) | 0 (Herbicidal ratio of 5% or lower (almost no effect)) | 0 (Herbicidal ratio of 5% or lower (almost no effect)) | 0 (Herbicidal ratio of 5% or lower (almost no effect)) | 0 (Herbicidal ratio of 5% or lower (almost no effect)) | 5 (Herbicidal ratio of 90% or more (almost completely withered)) | 0 (Herbicidal ratio of 5% or lower (almost no effect)) | 2 (Herbicidal ratio of 20% or higher and lower than 40%) | 0 (Herbicidal ratio of 5% or lower (almost no effect)) | 5 (Herbicidal ratio of 90% or more (almost completely withered)) | 2 (Herbicidal ratio of 20% or higher and lower than 40%) | 0 (Herbicidal ratio of 5% or lower (almost no effect)) | 0 (Herbicidal ratio of 5% or lower (almost no effect)) | 0 (Herbicidal ratio of 5% or lower (almost no effect)) | 5 (Herbicidal ratio of 90% or more (almost completely withered)) | 5 (Herbicidal ratio of 90% or more (almost completely withered)) | 
